The text below walks through data of patent US20130324545A1, “METHODS FOR THE REGULATION OF THE PROSTAGLANDIN F SYNTHASE (PGFS) ACTIVITY OF AKR1B1 AND USES THEREOF” (UNIVERSITE LAVAL, priority 2007, published 2013).

In data set [1] the test system is human endometrial epithelial (HIEEC) cells. In words: PGF2α and PGE2 production and enzyme expression in endometrial epithelial HIEEC cells stimulated with IL-1β (ELISA, Western blot). In kind it is cell-based. The note with it: for IC50: Homo sapiens; for PGF2α production / expression of PGF2α biosynthetic enzymes (AKR1B1, COX-1, COX-2): increasing doses of cytokine, HIEEC. The protocol:
(§1) Western blot analysis was performed with approximately 20 μg total proteins from cultured cells on a 10% SDS-PAGE gel, followed by electro-transfer onto nitrocellulose membrane. The primary antibodies used for the present study were rabbit AKR1B1 (dilution 1:1000) and COX-2 (dilution 1:10 000) anti-sera and goat AKR1C3 (dilution 1:500) anti-serum. A β-actin monoclonal antibody (1:5000, Sigma, Mississauga, Ontario, Canada) was used as an internal control. Goat anti-rabbit IgG conjugated with horseradish peroxidase (HRP) (Jackson Immunoresearch Laboratories, West Grove, Pa., USA), rabbit anti-goat IgG HRP and goat anti-mouse IgG HRP were used as secondary antibodies. Chemiluminescence was analyzed with autoradiography films at optimal times of exposure following treatment of the membranes with Renaissance™ reagent (NEN Life Science Products, Boston, Mass., USA).
(§2) For cell culture transfection, immortalized human endometrial stromal cells (HIESC-2) and epithelial cells(HIEEC-22) were cultured in RPMI 1640 without phenol red, containing 50 IU penicillin-streptomycin supplemented with 10% whole fetal bovine serum (FBS). Ten percent dextran-coated charcoal-extracted FBS was used once cells have reached confluency. Knock-down and knock-in transfections of cells with AKR1B1 specific siRNA, AKR1B1 or AKRIC3 cDNAs in pCR3.1 expression vectors were performed with Lipofectamine™ 2000 for 4 hours in culture medium without antibiotic. Thirty-six hours after transfection (24 hours for siRNA transfection), cells were treated for 24 hours with recombinant human interleukin 1β (IL-1β) (1 ng/ml) (R&D Systems, Minneapolis, Minn., USA) or arachidonic acid (AA) 10 μM in RPMI 1640 medium without serum. At the end of the treatment period, the culture medium was recovered and stored at −20° C. until evaluation for PGF2α production.
(§3) Enzymatic immunoassay (EIA) was performed with an acetylcholinesterase-linked PGF2α tracer (Cayman) as described previously (Asselin et al., Biol Reprod 54(2); 371-9, 1996). Sheep anti-PGF2α (Bio-Quant, Ann Arbor, Mich., USA) was used as the selective antibody. Inter-assay and intra-assay coefficients of variations (n=12) were of 16% and 10% respectively. Statistical analysis was performed using ANOVA with Statview™ software (Abacus Concept, Calif.). Values were considered statistically significant for p<0.05.
Background: An ELISA detects its analyte on a solid surface through an enzyme-linked reagent.

In data set [2] the target is T1, AKR1B1 (Homo sapiens, UniProt P15121).
T1 construct: endogenous in cells; host or cells: 'our cellular model'
In words: Effect of ASA / COX inhibitors on AKR1B1 expression and PGF synthase activity in cells expressing AKR1B1. In kind it is cell-based. The protocol: as §1

For data set [3] the following is noted: diabetic subjects having neuropathies; cited from earlier work.
The subject of data set [4] is macrophages. As to conditions: macrophages treated with endotoxines or lipopolysaccharides; cited from earlier work.
For data set [5], the system named is primary human umbilical vein endothelial cells (HUVEC). In words: Effect of IL-1β and TNF-α on PGF2α, COX-2 and AKR1B1 in primary HUVEC. The data set is classed as cell-based. The note with it: for PGF2α production: ELISA; for COX-2 protein expression: endogenous AKR1B1 levels already high. The source says:
FIG. 22 comprises FIGS. 22A and 22B, with FIG. 22A illustrating the effect of IL-1β and TNF-α on the production of PGF2α by primary human umbilical vein endothelial cells (HUVEC), as measured by ELISA; and FIG. 22B illustrating the effect of IL-1β and TNF-α on the protein expression of COX-2 and AKR1B1 in primary HUVEC.

The test system of data set [6] is human primary cardiomyocytes. In words: Effect of IL-1β and TNF-α on PGF2α, COX-2 and AKR1B1 in human primary cardiomyocytes (ELISA, Western blot). In kind it is cell-based. The note with it: for PGF2α production: FIG. 19, ELISA; for AKR1B1 and COX-2 protein expression: FIG. 19, Western blot. An excerpt: FIG. 19 comprises FIG. 19A, 19B, 19C and 19D, and illustrates the effect of IL-1β and TNF-α on the production of PGF2α (A), COX-2 (B) and AKR1B1 (C) by human primary cardiomyocytes, as measured by ELISA and Western blot. FIG. 19D illustrates β-actin levels of the three cells groups.

Data set [7] deals with primary human umbilical vein smooth muscle cells (HUVSMC). In words: Effect of IL-1β on PGF2α, COX-2 and AKR1B1 in primary HUVSMC. The data set is classed as cell-based. The source says:
FIG. 21 comprises FIGS. 21A and 21B, with FIG. 21A illustrating the effect of IL-1β on the production of PGF2α by primary human umbilical vein smooth muscle cells (HUVSMC), as measured by ELISA; and FIG. 21B illustrating the effect of IL-1β on the protein expression of COX-2 and AKR1B1 in primary HUVSMC.

For data set [8], the system named is human endometrial stromal (HIESC) cells. In words: PGF2α and PGE2 production and enzyme expression in endometrial stromal HIESC cells stimulated with IL-1β (ELISA, Western blot). In kind it is cell-based. As to conditions: increasing doses of cytokine. Here is the method: as §1, §2, §3
The test system of data set [9] is primary human umbilical artery smooth muscle cells (HUASMC). Nature of the data set: Effect of IL-1β on PGF2α, COX-2 and AKR1B1 in primary HUASMC. In kind it is cell-based. An excerpt: FIG. 20 comprises FIGS. 20A and 20B, with FIG. 20A illustrating the effect of IL-1β on the production of PGF2α by primary human umbilical artery smooth muscle cells (HUASMC), as measured by ELISA; and FIG. 20B illustrating the effect of IL-1β on the protein expression of COX-2 and AKR1B1 in primary HUASMC.

Data set [10] concerns human endometrial stromal (HIESC) cells. In words: PGF2α and PGE2 production and enzyme expression in endometrial stromal HIESC cells stimulated with IL-1β (ELISA, Western blot). In kind it is cell-based. As to conditions: for IC50: Homo sapiens, stromal HIESC cells stimulated by IL-1β, ELISA, range in brackets; for PGE2 production in presence of PG receptor antagonist: IL-1β-stimulated stromal HIESC.

Where [11] appears, read: HIEEC cells stimulated by IL-1β, ELISA, range in brackets, read-out: IC50 PGE2 production.
Where [12] appears, read: HIEEC cells treated with IL-1β, ELISA, range in brackets, read-out: IC50 PGF2α production.
[13] abbreviates: read-out: IC50 PGF2α production.

Where two headings read alike, the source gives them in different places.

For `CS(=O)(=O)c1ccc(C2=C(c3ccccc3)C(=O)OC2)cc1` [rofecoxib], in [1] (HIEEC cells stimulated with IL-1β), the “inhibits production of PGE2 more efficiently than production of PGF2α” value is recorded as “ten times more efficiently”. For the same compound, the IC50 in data set [1] (setting [11]) turned out to be 51.7 nM; in [1] (setting [12]), 201 nM. The PGF2α/PGE2 ratio entry in data set [1] (at 10 μM) is “strong alteration of the PGF2α/PGE2 ratio in favor of PGF2α”. Further, the AKR1B1 gene expression entry in data set [2] is “do not influence”.

For `CS(=O)(=O)Nc1ccc([N+](=O)[O-])cc1OC1CCCCC1` [NS-398], in data set [1] (COX-1-expressing HIEEC, IL-1β), the “inhibition of PGF2α production” value was “did not completely inhibited”.

Regarding `O=C(O)Cc1nn(Cc2nc3cc(C(F)(F)F)ccc3s2)c(=O)c2ccccc12` [Zopolrestat™], the side-effects entry in data set [3] is “undesirable hepatic side-effects”. The “production levels of PGE2” value in data set [4] was “capable to reduce”.

In the case of `COc1ccc2c(C(=S)N(C)CC(=O)O)cccc2c1C(F)(F)F` [Tolrestat™], in data set [3], the side-effects result was “undesirable hepatic side-effects”. The “production levels of PGE2” value in data set [4] was “capable to reduce”.

IL-1β: recombinant human interleukin 1β: the PGF2α production entry in [5] is “stimulated”; in data set [6], “stimulated”; in [1], “increase in PGF2α production”; in data set [7] (ELISA), “stimulated”; in data set [8], “increase in PGF2α production”; in [9] (ELISA), “stimulated”. Besides, the COX-2 protein expression result in [5] was “stimulated”. Further, the “AKR1B1 and COX-2 protein expression” value in [6], in [7] and in [9] was “stimulated” each time. Moreover, in [1] (HIEEC-22, 1 ng/ml, Western blot), the “AKR1C3 protein expression level” value was “no effect”. In addition, the “expression of PGF2α biosynthetic enzymes (AKR1B1, COX-1, COX-2)” value (shortened to “expression of PGF2α biosynthetic enzymes”) in data set [1] was “significant increase in expression of AKR1B1, COX-1 and COX-2”; in data set [8], “only of COX-2”.

`CC(=O)Oc1ccccc1C(=O)O` [Aspirin, acetylsalicylic acid]: in [1] (setting [13]), the IC50 came out at 1940 nM. Further, in data set [2], the AKR1B1 gene expression entry was “blocks”. The “inhibition of AKR1B1 protein” value in data set [2] (1-5 mM, cellular model) is “dose-dependent inhibition”. In addition, in data set [2] (cells expressing AKR1B1), the PGF synthase activity result was “strongly reduced” and the “protein expression level of AKR1B1” value is on record as “strongly reduced”.

With `O=C(O)Cc1nn(Cc2ccc(Br)cc2F)c(=O)c2ccccc12` [Statil™], in data set [3], the side-effects entry is “undesirable hepatic side-effects”.

As to TNF-α, in data set [5], the PGF2α production entry is “stimulated” and the COX-2 protein expression entry was “stimulated”. Also, in data set [6], the PGF2α production result is given as “stimulated”; the “AKR1B1 and COX-2 protein expression” value is given as “stimulated”. Further, in data set [1], the PGF2α production entry is given as “increase in PGF2α production”; the “expression of PGF2α biosynthetic enzymes” value was “significant increase in expression of AKR1B1, COX-1 and COX-2”. For the same compound, in data set [8], the PGF2α production entry is given as “increase in PGF2α production”; the “expression of PGF2α biosynthetic enzymes” value was “significant increase in expression of AKR1B1, COX-1 and COX-2”.

Take `O=C1NC(=O)[C@@]2(CCOc3ccc(F)cc32)N1` [Sorbinil™]: in data set [4], the “production levels of PGE2” value is given as “capable to reduce”.

Regarding `COc1ccc2cc([C@H](C)C(=O)O)ccc2c1` [naproxen], the “potency for inhibition of PGF2α production compared with Aspirin” value in [1] (HIEEC cells stimulated by IL-1β) is reported as “more potent than Aspirin™”. Besides, the IC50 in [1] (setting [11]) stood at 142 nM; in data set [1] (setting [12]) it was 4.62 nM; in data set [10] (read-out: IC50 PGE2 production) it was 62.6 nM; in data set [10] (setting [13]), 43.8 nM. The PGF2α/PGE2 ratio entry in [1] (at 10 nM) was “strong alteration of the PGF2α/PGE2 ratio in favor of PGE2”. The “inhibits PGF2α more efficiently than PGE2” value in [1] (endometrial epithelial cells (express COX-1 and COX-2)) came to 100 times. The “inhibition of PGF2α versus PGE2 production, comparison of IC50” value in data set [10] (endometrial stromal cells (only express COX-2)) is recorded as “comparable IC50”.

Regarding `O=C(O)CCC/C=C\C[C@@H]1[C@@H](/C=C/[C@H](O)C2Cc3ccccc3C2)[C@@H](F)C[C@@H]1O` [AL8810], the “PGE2 production in presence of PG receptor antagonist” value in data set [1] (IL-1β-stimulated epithelial HIEEC) is “induced a reduction in PGE2 production”; in [10] it was “induced a reduction in PGE2 production”; in data set [10] (listed as AL 8810), “reduced PGE2 production”.

Broadly, the IC50 is the midpoint of a concentration-inhibition curve.
